From the NIST ThermoML archive (doi:10.1007/s10765-010-0719-7)
± gives the expanded uncertainty stated by the source.

Legend:
[1] = xn = mol fraction of the nth substance listed; conditions: 101 kPa, Liquid; for mass density: Pycnometric method
[2] = refractive index (Na D-line) (dimensionless); xn = mol fraction of the nth substance listed; conditions: 303.15 K, 101 kPa, Liquid, Standard Abbe refractometry
[3] = refractive index (Na D-line) (dimensionless); conditions: 303.15 K; 101.33 kPa; Liquid; Standard Abbe refractometry
[4] = 101 kPa, Liquid; for mass density: Pycnometric method

CCCCOCCO [2-butoxyethan-1-ol] + CC(C)CCO
[1]
Conditions	mass density, 303.15 K [kg/m3]	mass density, 313.15 K [kg/m3]	mass density, 323.15 K [kg/m3]	speed of sound, 303.15 K [m/s]	viscosity, 303.15 K [mPa·s]	viscosity, 313.15 K [mPa·s]	viscosity, 323.15 K [mPa·s]
x2 = 0	892 ± 0.6	884.2 ± 0.6	877.5 ± 0.7	1288.4 ± 1.3	2.486 ± 0.056	1.979 ± 0.046	1.653 ± 0.039
x2 = 0.1297	882.2 ± 0.6	874.5 ± 0.6	867.7 ± 0.7	1279.8 ± 1.3	2.483 ± 0.056	1.969 ± 0.045	1.623 ± 0.038
x2 = 0.251	872.5 ± 0.6	865.4 ± 0.6	858.2 ± 0.6	1270.3 ± 1.3	2.496 ± 0.056	1.967 ± 0.045	1.629 ± 0.038
x2 = 0.3649	863.1 ± 0.6	856.1 ± 0.6	848.8 ± 0.6	1261.8 ± 1.3	2.514 ± 0.057	1.987 ± 0.046	1.636 ± 0.038
x2 = 0.472	853.9 ± 0.6	847.2 ± 0.6	839.8 ± 0.6	1251.8 ± 1.3	2.557 ± 0.058	1.997 ± 0.046	1.65 ± 0.039
x2 = 0.5728	845 ± 0.6	837.9 ± 0.6	831 ± 0.6	1242.3 ± 1.3	2.594 ± 0.059	2.028 ± 0.047	1.673 ± 0.039
x2 = 0.6679	838.6 ± 0.6	829.5 ± 0.6	822.3 ± 0.6	1233.5 ± 1.3	2.653 ± 0.06	2.067 ± 0.048	1.702 ± 0.04
x2 = 0.7578	827.7 ± 0.6	821 ± 0.6	813.9 ± 0.6	1224.2 ± 1.3	2.748 ± 0.062	2.121 ± 0.049	1.737 ± 0.04
x2 = 0.8428	819.3 ± 0.6	812.5 ± 0.6	805.7 ± 0.6	1215.3 ± 1.3	2.877 ± 0.065	2.2 ± 0.05	1.798 ± 0.042
x2 = 0.9235	811.1 ± 0.6	804.6 ± 0.6	797.6 ± 0.6	1206.4 ± 1.3	3.058 ± 0.068	2.303 ± 0.053	1.851 ± 0.043

[2]
Conditions	refractive index
x2 = 0	1.415 ± 0.0005
x2 = 0.1297	1.4138 ± 0.0005
x2 = 0.251	1.4127 ± 0.0005
x2 = 0.3649	1.4115 ± 0.0005
x2 = 0.472	1.4104 ± 0.0005
x2 = 0.5728	1.4093 ± 0.0005
x2 = 0.6679	1.408 ± 0.0005
x2 = 0.7578	1.4069 ± 0.0005
x2 = 0.8428	1.4058 ± 0.0005
x2 = 0.9235	1.4047 ± 0.0005

CCCCOCCO [2-butoxyethan-1-ol]
Conditions	refractive index
[3]	1.415 ± 0.0005

[4]
Conditions	mass density [kg/m3]	speed of sound [m/s]	viscosity [mPa·s]
303.15 K	892 ± 0.6	1288.4 ± 1.3	2.486 ± 0.056
313.15 K	884.2 ± 0.6	–	1.979 ± 0.046
323.15 K	877.5 ± 0.7	–	1.653 ± 0.039

CCOCCO [2-ethoxyethan-1-ol] + CC(C)CCO
[1]
Conditions	mass density, 303.15 K [kg/m3]	mass density, 313.15 K [kg/m3]	mass density, 323.15 K [kg/m3]	speed of sound, 303.15 K [m/s]	viscosity, 303.15 K [mPa·s]	viscosity, 313.15 K [mPa·s]	viscosity, 323.15 K [mPa·s]
x2 = 0	919.5 ± 0.6	912 ± 0.6	903.8 ± 0.7	1301.5 ± 1.3	1.623 ± 0.038	1.355 ± 0.032	1.143 ± 0.028
x2 = 0.102	906.1 ± 0.6	898.6 ± 0.6	890.5 ± 0.7	1292.4 ± 1.3	1.688 ± 0.039	1.385 ± 0.033	1.169 ± 0.028
x2 = 0.2036	892.9 ± 0.6	885.6 ± 0.6	877.7 ± 0.7	1282.4 ± 1.3	1.761 ± 0.041	1.424 ± 0.034	1.196 ± 0.029
x2 = 0.3047	880.1 ± 0.6	872.9 ± 0.6	865.1 ± 0.7	1272.7 ± 1.3	1.812 ± 0.042	1.469 ± 0.035	1.222 ± 0.029
x2 = 0.4053	867.7 ± 0.6	860.5 ± 0.6	853 ± 0.7	1262.9 ± 1.3	1.892 ± 0.044	1.53 ± 0.036	1.263 ± 0.03
x2 = 0.5055	855.8 ± 0.6	848.7 ± 0.6	841.3 ± 0.6	1251.2 ± 1.3	1.994 ± 0.046	1.604 ± 0.038	1.31 ± 0.031
x2 = 0.6053	844.3 ± 0.6	837.3 ± 0.6	830 ± 0.6	1240.6 ± 1.3	2.124 ± 0.049	1.68 ± 0.039	1.377 ± 0.033
x2 = 0.7046	833.3 ± 0.6	826.4 ± 0.6	819.2 ± 0.6	1229.3 ± 1.3	2.301 ± 0.052	1.812 ± 0.042	1.46 ± 0.034
x2 = 0.8035	822.8 ± 0.6	815.9 ± 0.6	808.8 ± 0.6	1219.2 ± 1.3	2.496 ± 0.056	1.945 ± 0.045	1.566 ± 0.037
x2 = 0.902	812.6 ± 0.6	805.8 ± 0.6	799 ± 0.6	1208.7 ± 1.3	2.807 ± 0.063	2.143 ± 0.049	1.728 ± 0.04

[2]
Conditions	refractive index
x2 = 0	1.4065 ± 0.0005
x2 = 0.102	1.4062 ± 0.0005
x2 = 0.2036	1.4059 ± 0.0005
x2 = 0.3047	1.4055 ± 0.0005
x2 = 0.4053	1.4052 ± 0.0005
x2 = 0.5055	1.4049 ± 0.0005
x2 = 0.6053	1.4046 ± 0.0005
x2 = 0.7046	1.4043 ± 0.0005
x2 = 0.8035	1.404 ± 0.0005
x2 = 0.902	1.4037 ± 0.0005

CC(C)CCO [3-methylbutan-1-ol]
Conditions	refractive index
[3]	1.4035 ± 0.0005

[4]
Conditions	mass density [kg/m3]	speed of sound [m/s]	viscosity [mPa·s]
303.15 K	803.1 ± 0.6	1197.4 ± 1.3	3.262 ± 0.073
313.15 K	796.4 ± 0.6	–	2.441 ± 0.055
323.15 K	789.8 ± 0.6	–	1.94 ± 0.045

COCCO [2-methoxyethan-1-ol]
Conditions	refractive index
[3]	1.3983 ± 0.0005

[4]
Conditions	mass density [kg/m3]	speed of sound [m/s]	viscosity [mPa·s]
303.15 K	956.8 ± 0.6	1324.3 ± 1.4	1.55 ± 0.036
313.15 K	946.3 ± 0.7	–	1.288 ± 0.031
323.15 K	937.8 ± 0.7	–	1.082 ± 0.026
